Values quoted from earlier work as cited in US10307140B2, “Device for detection of hepatocellar carcinoma (HCC) using an octanoate breath test” (EXALENZ BIOSCIENCE LTD., priority 2011, dated 2019).
Read-outs that look alike come from different tables or passages of the source.

System: liver mitochondria
Conditions: HCC patients

- change of ketoisocaproate decarboxylation (after RFA, P<0.05): −27%
- change of ketoisocaproate decarboxylation (after TACE): unaffected
Compound: CC(C)CC(=O)C(=O)O [KICA, ketoisocaproate]
